Reference: ChEMBL document CHEMBL3826953, “Development of Autotaxin Inhibitors: An Overview of the Patent and Primary Literature” (J Med Chem, 2016)
Each block holds one compound with its values, some of them ahead of it.

Columns and labels:
Autotaxin [1] = biological target: T1, Autotaxin (Homo sapiens, UniProt Q13822); assay: Inhibition of human recombinant ATX using FS3 as substrate incubated for 2 hrs by fluorescence assay
Autotaxin [2] = biological target: T1, Autotaxin; assay: Mixed-type inhibition of human recombinant ATX using FS3 as substrate assessed as enzyme-substrate-inhibitor complex incubated for 2 hrs by Michaelis-Menten equation analysis
Autotaxin [3] = biological target: T1, Autotaxin; assay: Mixed-type inhibition of human recombinant ATX using FS3 as substrate assessed as enzyme-inhibitor complex incubated for 2 hrs by Michaelis-Menten equation analysis
Autotaxin [4] = biological target: T1, Autotaxin; assay: Inhibition of recombinant ATX (unknown origin) expressed in baculovirus infected Hi5 cells using L-alpha-lysophosphatidylcholine as substrate preincubated for 30 mins followed by substrate addition measured after 90 mins by AmplexRed dye based fluorescence plate reader analysis; conditions: BTI-TN-5B1-4
Autotaxin [5] = biological target: T1, Autotaxin; assay: Inhibition of recombinant human ATX using CPF4 as substrate measured after 3 hrs by fluorescence assay
Autotaxin [6] = biological target: T1, Autotaxin; conditions: 10 uM
Description: Inhibition of recombinant human ATX at 10 uM using lysophosphatidylcholine (14:0) as substrate measured after 2 hrs by AmplexRed dye based fluorescence assay relative to control

Autotaxin [7] = biological target: T1, Autotaxin; assay: Inhibition of recombinant human C-terminal His-tagged ATX expressed in HEK293E cells using lysophosphatidylcholine as substrate preincubated with enzyme followed by substrate addition measured after 1 hr by AmplexRed dye based fluorescence assay
Autotaxin [8] = biological target: T2, Autotaxin (Mus musculus, UniProt Q9R1E6); assay: Inhibition of ATX in mouse plasma assessed as inhibition of LPA production after 2 hrs by LC-MS/MS analysis; format: cell-free
Autotaxin [9] = biological target: Autotaxin (Rattus norvegicus, UniProt Q64610); assay: Inhibition of ATX in rat plasma assessed as inhibition of LPA production after 2 hrs by LC-MS/MS analysis; format: cell-free
Autotaxin [10] = biological target: T2, Autotaxin; assay: Inhibition of recombinant mouse ATX using lysophosphatidylcholine as substrate by choline release assay
[11] = Half life in human; format: ADME, organism-based; conditions: in vivo
Autotaxin [12] = biological target: T1, Autotaxin; assay: Inhibition of recombinant ATX in human […] cells using lysophosphatidylcholine as substrate preincubated for 15 mins followed by substrate addition measured after 90 mins by choline release assay; format: cell-based
Autotaxin [13] = biological target: T1, Autotaxin; assay: Inhibition of recombinant ATX in human MDA-MB-435 cells at 10 uM using FS3 as substrate fluorescence assay relative to control; format: cell-based
Autotaxin [14] = biological target: T1, Autotaxin; assay: Inhibition of recombinant ATX in human Hep3B cells using lysophosphatidylcholine as substrate preincubated for 15 mins followed by substrate addition measured after 1.5 to 3 hrs by choline release assay; format: cell-based, Hep 3B2
Autotaxin [15] = biological target: T1, Autotaxin; assay: Inhibition of human recombinant ATX using FS3 as substrate incubated for 30 mins by fluorescence assay
[16] = Plasma concentration in Lewis rat air pouch model of inflammation at 100 mg/kg, po administered through gavage 1 hr before carrageenan injection measured after 3 hrs by LC-MS/MS analysis relative to control; format: ADME, organism-based
[17] = Oral bioavailability in Lewis rat at 1 to 100 mg/kg administered through gavage measured up to 24 hrs by LC-MS/MS analysis; format: ADME, organism-based; conditions: in vivo
Rattus norvegicus [18] = assay: In vivo inhibition of ATX in Lewis rat air pouch model of inflammation assessed as inhibition of carrageenan-induced LPA production in pouch fluid at 100 mg/kg, po administered through gavage 1 hr before carrageenan injection measured after 3 hrs by LC-MS/MS analysis relative to control; format: functional
[19] = Clearance in Lewis rat at 1 mg/kg, iv measured up to 24 hrs by LC-MS/MS analysis; format: ADME, organism-based; conditions: in vivo
[20] = Effective half life in Lewis rat at 1 mg/kg, iv measured up to 24 hrs by LC-MS/MS analysis; format: ADME, organism-based; conditions: in vivo, read-out: t1/2eff (converted)
[21] = Plasma concentration in Lewis rat air pouch model of inflammation at 3 mg/kg, po administered through gavage 1 hr before carrageenan injection measured after 3 hrs by LC-MS/MS analysis relative to control; format: ADME, organism-based
Rattus norvegicus [22] = assay: In vivo inhibition of ATX in Lewis rat air pouch model of inflammation assessed as inhibition of carrageenan-induced LPA production in plasma at 100 mg/kg, po administered through gavage 1 hr before carrageenan injection measured after 3 hrs by LC-MS/MS analysis relative to control; format: functional
Autotaxin [23] = biological target: T1, Autotaxin; assay: Inhibition of recombinant human C-terminal V5/His6-tagged ATX expressed in HEK293 cells assessed as residual activity at 10 uM using oleoyl-lysophosphatidylcholine as substrate incubated for 16 hrs by choline release assay relative to control
Autotaxin [24] = biological target: T1, Autotaxin; assay: Inhibition of recombinant human C-terminal V5/His6-tagged ATX expressed in HEK293 cells assessed as residual activity at 1 uM using oleoyl-lysophosphatidylcholine as substrate incubated for 16 hrs by choline release assay relative to control
Autotaxin [25] = biological target: T1, Autotaxin; assay: Inhibition of recombinant human C-terminal V5/His6-tagged ATX expressed in HEK293 cells assessed as choline release at 0.5 uM using oleoyl-lysophosphatidylcholine as substrate incubated for 18 hrs by linear regression analysis
Autotaxin [26] = biological target: T1, Autotaxin; assay: Inhibition of recombinant human C-terminal V5/His6-tagged ATX expressed in HEK293 cells assessed as choline release at 0.5 uM using oleoyl-lysophosphatidylcholine as substrate incubated for 18 hrs by non-linear regression analysis
Autotaxin [27] = biological target: T1, Autotaxin; assay: Inhibition of recombinant human C-terminal V5/His6-tagged ATX expressed in HEK293 cells assessed as residual activity at 100 uM using oleoyl-lysophosphatidylcholine as substrate incubated for 16 hrs by choline release assay relative to control

SMILES: CCCCCCCCCCCCCCc1ccc(CP(=O)(O)O)cc1
- IC50 (Autotaxin [1]): 170 nM
- Ki (Autotaxin [2]): 280 nM
- Ki (Autotaxin [3]): 270 nM

SMILES: O=C(OCc1cc(Cl)cc(Cl)c1)N1CCC(N2CCN(C(=O)c3ccc4[nH]c(=O)oc4c3)CC2)CC1
- INH (Autotaxin [4]): < 1 µM

SMILES: O=C(c1cc(-c2cnn[nH]2)ccn1)N1CCc2nc(NC3Cc4ccccc4C3)ncc2C1
- IC50 (Autotaxin [7]): < 1.7 nM

SMILES: CCc1nc2c(C)cc(N3CCN(CC(=O)N4CC(O)C4)CC3)cn2c1N(C)c1nc(-c2ccc(F)cc2)c(C#N)s1 [ZIRITAXESTAT]
- IC50 (Autotaxin [8]): ≥ 500 nM
- IC50 (Autotaxin [9]): ≥ 500 nM
- IC50 (Autotaxin [10]): 224 nM
- half-life [11]: 5 h

SMILES: Cc1c(Sc2cccc(C(=O)O)n2)c2ccc(Cl)cc2n1-c1cnn(C)c1
- IC50 (Autotaxin [12]): < 300 nM

SMILES: CCn1cc(C(=O)O)c(=O)c2cnc(N3CCN(C(=S)NCc4cc(Cl)cc(Cl)c4)CC3)nc21
- inhibition (Autotaxin [13]): 0%

SMILES: N#C/C(=C\c1nn(Cc2ccc(F)cc2)c2cc(Cl)ccc12)c1ccc(C(=O)O)cc1
- IC50 (Autotaxin [14]): < 500 nM

Second part, led by results:

- IC50 (Autotaxin [5]): 31.4 nM
- inhibition (Autotaxin [6]): 41%
SMILES: O=C(Nc1cccc(F)c1)c1cc(S(=O)(=O)N2CCOCC2)c(Cl)cc1Cl

- IC50 (Autotaxin [15]): 2.59 nM
SMILES: O=C(CCc1nc2ccccc2s1)N1CCc2ncnc(Cc3ccc(F)cc3)c2C1

- concentration at 3 h [16]: 2680 nM
- bioavailability [17]: 43%
- clearance [19]: 31 mL/min/kg
- half-life [20]: 1.2 h
- concentration at 3 h [21]: 79 nM
SMILES: O=C(CCN1CCN(C(=O)OCc2cc(Cl)cc(Cl)c2)CC1)c1ccc2[nH]c(=O)oc2c1
- inhibition in vivo at 100 mg/kg (Rattus norvegicus [18]): ≤ 95%
- inhibition in vivo at 100 mg/kg (Rattus norvegicus [22]): ≤ 95%

- Activity (Autotaxin [23]): 13%
- Activity (Autotaxin [24]): 27%
- Ki (Autotaxin [25]): 390 nM
- Ki (Autotaxin [26]): 1300 nM
- Activity (Autotaxin [27]): 6%
SMILES: CCCCCCCCCCCCCCCC(=O)N[C@@H](Cc1ccc(OCc2ncc(C)c(OC)c2C)cc1)[C@@H](O)CP(=O)(O)O
